# Source: patent US10017538B2, “Bioactive peptides having insecticide activity” (The United States of America, as represented by the …, priority 2016, dated 2018)
# Tested on: Solenopsis invicta workers
# Test: Injection bioassay of peptides in fire ant workers, adult mortality
# Type: in vivo
# Conditions: peptide with Cys-Cys S-S bond in insect saline, injected into fire ant workers
# Protocol: Peptides identified herein are injected into the hemocoel of Solenopsis invicta workers using a Nanoliter 2000™ System (World Precision Instruments) with pulled borosilicate needles.
# (§1) To determine the negative impact these peptides may have against fire ants, synthesis of potential candidates of small peptides with Cysteine-Cysteine S—S bond at the N- and C-terminal ends of SEQ ID NO: 2 and SEQ ID NO: 14. Synthesis of the peptides is described above. These peptides were dissolved in an insect saline (composition in mM: NaCl 126, KCl 5.4, NaH2PO4 0.17 and KH2PO4 0.22, pH 7.4) or the saline only control were injected into fire ant workers and phenotypic effects monitored.
# as §1, with “NO:2-SEQ” for “NO: 2 and SEQ”, “NO:14.” for “NO: 14.”
row,Substance,adult mortality compared to the saline control
1,"CGSHFC (Synthetically generated peptide) [SEQ ID NO: 14, short synthetically generated peptide]",did not affect adult mortality
2,"CIQQGSHFC (Synthetically generated peptide) [SEQ ID NO: 4, synthetically generated peptide, loop-constrained by flanking cysteines]",significant increase in adult mortality
3,"CLKIGSHFC (Synthetically generated peptide) [SEQ ID NO: 3, synthetically generated peptide, loop-constrained by flanking cysteines]",significant increase in adult mortality
4,"CMARYMSAC (Synthetically generated peptide) [SEQ ID NO: 11, synthetically generated peptide, loop-constrained by flanking cysteines]",significant increase in adult mortality
5,"CQKIGSHFC (Synthetically generated peptide) [SEQ ID NO: 2, synthetically generated peptide, loop-constrained by flanking cysteines]",increase in adult mortality
6,"CRGATPMSC (Synthetically generated peptide) [SEQ ID NO: 12, synthetically generated peptide, loop-constrained by flanking cysteines]",significant increase in adult mortality
